From patent US20090155337A1, “METHOD AND AGENT FOR IN-SITU STABILIZATION OF VASCULAR TISSUE” (ENDOLOGIX, INC., priority 2007, published 2009) come the findings set out here.

The experiment relates to collagen. Briefly: Shrinkage temperature testing of pericardial tissue fixed (cross-linked) in EGCG/PBS. Conditions: for Shrinkage Temperature: pH 7.42, 37° C., fresh tissue control 62.6 +/− 0.6. How it is done:
A 7 cm×7 cm piece of pericardial tissue was fixed in 40 ml of 0.5% EGCG/phosphate buffered saline (PBS), pH 7.42 in a 100 mm petri dish at 37° C., 82 rpm shaking speed, for 15 min. After 15 minutes, the tissue was quickly rinsed with PBS. Three samples were cut out for immediate shrinkage temperature testing (Group A). Shrinkage temperature can be an indication of the stability of the tissue. Increased shrinkage temperature is associated with an increased resistance to degradation. An additional 7 cm×7 cm piece of pericardial tissue was fixed in 40 ml of 0.5% EGCG/PBS, pH 7.42 in a 100 mm petri dish at 37° C. for 48 hours and quickly rinsed in PBS for 15 minutes. Six samples were cut out for shrinkage temperature testing (Group B). Six samples of fresh pericardial tissue were also cut for shrinkage temperature testing (Group C—Control Group).

In the case of `O=C(O[C@@H]1Cc2c(O)cc(O)cc2O[C@@H]1c1cc(O)c(O)c(O)c1)c1cc(O)c(O)c(O)c1` [EGCG, epigallocatechin gallate], the “Shrinkage Temperature” value is, setting by setting: (Group A: pericardial tissue cross-linked for 15 min in 0.5% EGCG/PBS) 72.2 +/− 0.5 °C; (Group B: pericardial tissue cross-linked for 48 hours in 0.5% EGCG/PBS) 86.3 +/− 0.6 °C. Consider Catechin, for which, where the note is “within 15 minutes of application under physiological conditions”, the “Stability of collagen via cross-linking” value is listed as “increases the stability of collagen”.
